{
  "source": "patent US8017124B2",
  "about": "“Use of DMBT1 for capturing sulphate and phosphate group exposing agents” (priority 2004, dated 2011)",
  "key": {"[1]": {"target": "T1, DMBT1 (Homo sapiens, UniProt Q9UGM3)", "T1 construct": "was obtained from parotid saliva of healthy volunteer donors collected with Lashley cups; from tissue; host or cells: parotid saliva of healthy volunteer donors, purified to about 95% homogeneity", "T1 sequence (Q9UGM3 20-2413)": "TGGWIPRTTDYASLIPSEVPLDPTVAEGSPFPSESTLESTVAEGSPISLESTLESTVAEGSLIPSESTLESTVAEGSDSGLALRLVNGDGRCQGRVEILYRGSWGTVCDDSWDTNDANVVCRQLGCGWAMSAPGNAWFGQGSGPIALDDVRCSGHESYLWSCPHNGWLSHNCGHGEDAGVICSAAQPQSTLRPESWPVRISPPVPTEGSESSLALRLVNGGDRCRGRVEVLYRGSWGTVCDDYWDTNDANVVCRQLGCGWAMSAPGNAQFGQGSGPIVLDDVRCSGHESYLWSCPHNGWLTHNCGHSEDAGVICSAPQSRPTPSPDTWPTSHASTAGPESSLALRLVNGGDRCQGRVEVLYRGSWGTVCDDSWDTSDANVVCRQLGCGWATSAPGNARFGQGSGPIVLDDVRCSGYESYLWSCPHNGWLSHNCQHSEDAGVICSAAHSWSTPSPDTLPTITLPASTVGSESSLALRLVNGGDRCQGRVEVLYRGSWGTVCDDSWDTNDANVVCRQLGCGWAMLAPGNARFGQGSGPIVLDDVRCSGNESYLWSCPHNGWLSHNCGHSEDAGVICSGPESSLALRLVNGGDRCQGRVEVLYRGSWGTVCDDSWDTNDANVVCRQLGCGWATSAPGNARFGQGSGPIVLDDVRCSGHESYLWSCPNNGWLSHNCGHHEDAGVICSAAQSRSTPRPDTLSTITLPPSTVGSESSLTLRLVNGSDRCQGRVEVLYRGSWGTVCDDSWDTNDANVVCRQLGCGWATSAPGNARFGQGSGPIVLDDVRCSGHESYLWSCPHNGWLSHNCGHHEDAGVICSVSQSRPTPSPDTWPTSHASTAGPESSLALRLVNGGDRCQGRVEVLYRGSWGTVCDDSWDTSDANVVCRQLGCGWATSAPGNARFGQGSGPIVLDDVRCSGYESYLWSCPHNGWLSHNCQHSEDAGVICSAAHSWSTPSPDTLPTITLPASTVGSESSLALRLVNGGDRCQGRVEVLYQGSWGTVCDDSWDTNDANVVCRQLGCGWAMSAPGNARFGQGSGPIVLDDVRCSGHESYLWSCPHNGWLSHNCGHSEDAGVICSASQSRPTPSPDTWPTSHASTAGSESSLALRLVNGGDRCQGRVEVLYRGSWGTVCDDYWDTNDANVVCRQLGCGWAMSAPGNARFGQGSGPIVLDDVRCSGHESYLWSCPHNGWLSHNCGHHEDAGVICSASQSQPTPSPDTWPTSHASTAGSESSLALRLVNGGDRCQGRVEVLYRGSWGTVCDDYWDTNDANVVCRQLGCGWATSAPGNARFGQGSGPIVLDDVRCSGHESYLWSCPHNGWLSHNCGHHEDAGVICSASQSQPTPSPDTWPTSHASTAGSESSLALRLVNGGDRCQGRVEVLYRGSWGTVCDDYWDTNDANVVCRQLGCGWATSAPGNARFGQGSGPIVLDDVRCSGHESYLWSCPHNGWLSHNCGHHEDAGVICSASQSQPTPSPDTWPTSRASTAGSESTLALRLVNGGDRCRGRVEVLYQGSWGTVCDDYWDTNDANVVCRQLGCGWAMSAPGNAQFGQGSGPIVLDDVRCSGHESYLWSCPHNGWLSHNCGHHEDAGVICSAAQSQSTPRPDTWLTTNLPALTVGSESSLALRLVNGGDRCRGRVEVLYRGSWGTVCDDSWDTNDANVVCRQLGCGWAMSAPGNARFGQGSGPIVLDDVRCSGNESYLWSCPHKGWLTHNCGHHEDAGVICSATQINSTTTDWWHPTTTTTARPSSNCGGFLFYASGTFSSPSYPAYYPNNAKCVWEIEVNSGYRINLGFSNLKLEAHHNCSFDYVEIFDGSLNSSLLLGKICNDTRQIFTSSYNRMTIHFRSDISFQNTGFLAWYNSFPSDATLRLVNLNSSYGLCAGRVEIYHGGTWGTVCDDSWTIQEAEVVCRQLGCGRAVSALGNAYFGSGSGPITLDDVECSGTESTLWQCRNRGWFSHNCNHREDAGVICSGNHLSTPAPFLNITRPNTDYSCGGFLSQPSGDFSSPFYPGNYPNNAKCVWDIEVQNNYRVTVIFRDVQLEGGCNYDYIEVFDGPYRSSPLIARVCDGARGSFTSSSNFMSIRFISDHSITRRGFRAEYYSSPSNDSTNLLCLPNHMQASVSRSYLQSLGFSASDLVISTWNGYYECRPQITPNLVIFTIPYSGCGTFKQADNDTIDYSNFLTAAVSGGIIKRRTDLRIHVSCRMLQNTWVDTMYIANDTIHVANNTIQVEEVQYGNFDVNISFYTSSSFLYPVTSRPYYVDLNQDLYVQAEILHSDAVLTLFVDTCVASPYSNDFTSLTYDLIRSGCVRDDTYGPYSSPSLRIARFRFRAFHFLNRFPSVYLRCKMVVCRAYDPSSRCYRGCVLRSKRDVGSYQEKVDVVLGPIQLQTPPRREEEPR", "test": "Binding of DMBT1/rDMBT1 to immobilized candidate substances (ELISA)", "conditions": "substance immobilized; DMBT1 or rDMBT1 10 μg/ml", "protocol": "For the peptide binding studies we used, unless otherwise indicated, 20 μg/ml peptide in a total volume of 100 μl (dilution in coating buffer, 100 mM carbonate buffer, pH 9.6) for the coating of high affinity ELISA plates (Microlon, Fluotrac 600; Greiner). When immobilizing rDMBT1, purified, partially purified DMBT1 or substances to be tested, we applied serial dilutions in coating buffer onto the plates. Coating was done at 4° C. for 16 h and was followed by three washes with PBS-T with 1 mM CaCl2 (PBS-TC). For the analysis of bacterial binding to immobilized peptides or protein, we incubated the wells with 100 μl bacterial solution at 37° C. for 2 h. After removal of unbound bacteria, 100 μl of SYTO-9 solution (Molecular Probes), which is a cell-permeable fluorescent DNA dye, was added, plates were incubated in the dark for 15 min and after three washes with PBS-TC, fluorescence was measured by determination of the emission at 535 nm with a microtiter plate reader (488 n=excitation; Fluostar Galaxy, BMG Laboratories). DNA binding to immobilized DMBT1 was analyzed by using the same plasmid (LPS-free preparation) as used for the competitive aggregation and transfection assays (see below). Bound DNA was detected analogous to detection of bacteria except for using SYTQ-13 as dye. […]"}, "[2]": {"target": "T2, DMBT1-SRCRP2 (Homo sapiens, UniProt Q9UGM3)", "T2 construct": "purity >85%); purchased Eurogentec (Belgium); host or cells: chemical synthesis", "test": "Turbidometric competition assay, DMBT1-SRCRP2-mediated bacterial aggregation", "assay_type": "binding", "conditions": "0.32% to 2.50% (w/v) DSS; 0.28% to 0.84% degraded carrageenan; peptide 100 μg/ml", "protocol": "(§1) Streptococcus gordonii (strain: […]) was cultured under anaerobic conditions as described before^17, harvested by centrifugation at 3,000 g, washed twice with PBS containing 10 mM EDTA and once with PBS and finally resuspended in PBS to a final OD700 of 2.0 corresponding to about 2.0×10^9 cells/ml, respectively.\n(§2) Competition assays were carried out in a final volume of 500 μl at RT. Streptococcus gordonii (250 μl in PBS) was mixed with 100 μl synthetic peptide DMBT1-SRCRP2 diluted 1:1 in PBS (final concentration in the assay: 100 μg/ml) or 100 μl purified rDMBT1 in PBS (final concentration in the assay: 15 μg/ml) and 150 μl of the respective competitor stock solutions, so that the final concentrations ranged from 0.32% to 2.50% (w/v) DSS and 0.28% to 0.84% […] degraded carrageenan. Samples with 0.0% competitor served as controls. The samples were placed in a spectrophotometer (Anthelie; SECOMAN, France) and the OD700-value was measured in intervals of 3 minutes. Each experiment was at least done in triplicate. For the DSS competition studies, we used the same DSS as in the animal experiments (Mr=36-50 kDa; ICN Biomedicals Aurora). High molecular weight lambda carrageenan was obtained from Sigma (Taufkirchen; Germany). […]"}, "[3]": {"target": "T3, human recombinant DMBT1 (rDMBT1) (Homo sapiens, UniProt Q9UGM3, G1295S/L1336F/T649M)", "T3 construct": "made in house; purified from culture supernatant", "T3 sequence (Q9UGM3 20-2413 T649M/G1295S/L1336F)": "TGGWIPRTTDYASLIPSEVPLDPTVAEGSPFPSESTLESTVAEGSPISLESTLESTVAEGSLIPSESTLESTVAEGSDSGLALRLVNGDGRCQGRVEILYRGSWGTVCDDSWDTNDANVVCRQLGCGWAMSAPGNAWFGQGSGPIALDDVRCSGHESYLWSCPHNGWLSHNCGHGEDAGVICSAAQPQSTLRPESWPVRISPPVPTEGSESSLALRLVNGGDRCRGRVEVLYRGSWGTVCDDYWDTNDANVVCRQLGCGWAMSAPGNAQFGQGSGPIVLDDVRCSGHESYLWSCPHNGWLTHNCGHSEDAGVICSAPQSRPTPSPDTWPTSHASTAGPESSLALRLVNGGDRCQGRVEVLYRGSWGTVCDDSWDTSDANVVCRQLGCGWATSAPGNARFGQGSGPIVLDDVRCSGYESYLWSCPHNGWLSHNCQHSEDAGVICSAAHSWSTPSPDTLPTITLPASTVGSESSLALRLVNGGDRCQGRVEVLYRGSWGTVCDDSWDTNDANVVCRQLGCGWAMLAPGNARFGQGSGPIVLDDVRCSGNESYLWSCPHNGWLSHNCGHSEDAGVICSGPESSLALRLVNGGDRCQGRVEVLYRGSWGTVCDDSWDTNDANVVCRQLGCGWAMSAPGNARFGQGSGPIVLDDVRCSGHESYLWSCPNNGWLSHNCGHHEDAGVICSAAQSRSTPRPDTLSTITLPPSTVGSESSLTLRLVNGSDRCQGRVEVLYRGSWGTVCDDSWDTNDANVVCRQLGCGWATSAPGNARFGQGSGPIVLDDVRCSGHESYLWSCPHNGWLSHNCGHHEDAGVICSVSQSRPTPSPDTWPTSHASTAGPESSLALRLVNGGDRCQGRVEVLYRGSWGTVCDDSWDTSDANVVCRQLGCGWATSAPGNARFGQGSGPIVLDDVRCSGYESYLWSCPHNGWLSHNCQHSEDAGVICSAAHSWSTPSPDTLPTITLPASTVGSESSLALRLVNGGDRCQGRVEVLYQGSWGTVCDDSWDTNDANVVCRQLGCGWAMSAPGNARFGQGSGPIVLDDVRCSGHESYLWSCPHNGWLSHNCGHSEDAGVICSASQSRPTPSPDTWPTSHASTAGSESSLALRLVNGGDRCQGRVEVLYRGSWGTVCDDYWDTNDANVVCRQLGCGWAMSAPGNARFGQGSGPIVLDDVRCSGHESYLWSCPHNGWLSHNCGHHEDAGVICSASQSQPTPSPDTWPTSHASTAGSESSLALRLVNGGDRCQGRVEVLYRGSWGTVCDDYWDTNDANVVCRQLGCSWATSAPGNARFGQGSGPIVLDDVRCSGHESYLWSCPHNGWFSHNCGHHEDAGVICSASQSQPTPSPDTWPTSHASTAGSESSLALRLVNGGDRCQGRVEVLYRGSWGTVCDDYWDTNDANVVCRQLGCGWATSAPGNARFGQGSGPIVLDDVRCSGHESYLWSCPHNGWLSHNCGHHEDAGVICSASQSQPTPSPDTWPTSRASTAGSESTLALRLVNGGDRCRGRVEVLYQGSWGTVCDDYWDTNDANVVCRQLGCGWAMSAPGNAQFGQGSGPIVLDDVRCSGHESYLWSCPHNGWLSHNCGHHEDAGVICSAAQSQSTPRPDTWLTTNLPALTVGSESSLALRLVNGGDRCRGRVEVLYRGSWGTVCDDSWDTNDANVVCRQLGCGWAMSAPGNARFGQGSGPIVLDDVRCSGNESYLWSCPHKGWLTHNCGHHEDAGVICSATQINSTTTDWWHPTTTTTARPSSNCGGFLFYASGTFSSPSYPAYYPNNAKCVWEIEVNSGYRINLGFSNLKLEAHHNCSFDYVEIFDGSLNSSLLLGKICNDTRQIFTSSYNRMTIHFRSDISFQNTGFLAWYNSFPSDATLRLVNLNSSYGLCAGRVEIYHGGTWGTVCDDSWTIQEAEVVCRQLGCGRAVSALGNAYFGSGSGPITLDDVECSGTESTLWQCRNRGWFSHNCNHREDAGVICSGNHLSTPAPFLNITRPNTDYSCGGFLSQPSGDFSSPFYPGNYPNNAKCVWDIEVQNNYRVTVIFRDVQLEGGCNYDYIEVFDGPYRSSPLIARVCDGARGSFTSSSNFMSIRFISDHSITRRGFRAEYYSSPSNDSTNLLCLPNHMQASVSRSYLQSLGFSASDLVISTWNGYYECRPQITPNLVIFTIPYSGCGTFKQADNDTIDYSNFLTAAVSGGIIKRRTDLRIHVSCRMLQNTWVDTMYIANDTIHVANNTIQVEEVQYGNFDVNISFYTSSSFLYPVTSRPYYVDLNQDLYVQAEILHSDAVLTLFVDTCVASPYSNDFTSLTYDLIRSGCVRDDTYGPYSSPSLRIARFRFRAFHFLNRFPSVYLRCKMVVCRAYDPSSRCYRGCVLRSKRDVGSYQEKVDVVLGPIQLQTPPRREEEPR", "test": "Turbidometric competition assay, rDMBT1-mediated Streptococcus gordonii aggregation", "assay_type": "binding", "conditions": "0.32% to 2.50% (w/v) DSS; 0.28% to 0.84% degraded carrageenan; rDMBT1 15 μg/ml", "protocol": "as §1, §2"}, "[4]": {"target": "T4, human rDMBT1 (Homo sapiens, UniProt Q9UGM3, G1295S/L1336F/T649M)", "T4 construct": "made in house; purified from culture supernatant", "test": "Binding of human rDMBT1 to immobilized DSS and degraded lambda carrageenan", "conditions": "rDMBT1 10 μg/ml; immobilized substance", "protocol": "DSS was serially diluted in coating buffer (100 mM carbonate buffer, pH 9.6) to obtain final concentrations of 2.5% to 0.02% (w/v). One hundred μl of the samples were applied onto ELISA plates (Microlon, F-Form; Greiner, Germany) and coating was done at 4° C. for 16 h. Acid hydrolyzed and pH-adjusted lambda carrageenan was serially diluted with the solvent (approximately 50 mM HCl and 50 mM NaOH) to obtain concentrations ranging from 2.8% to 0.0055% […] and coating of ELISA plates was done at 37° C. for 2 h. After coating and three washes with TBS containing 0.1% (v/v) Tween 20 (TBS-T), rDMBT1 (10 μg/ml in TBS-T) was added to each well and incubated at 37° C. for 1 h. The wells were then washed five times with 200 μl TBS-T, incubated at 37° C. for 1 h with the DMBT1-specific mouse monoclonal antibody anti(A2) gp-340 (Hyb213-06; Antibody-Shop; dilution 1:10,000 in TBS-T), washed again five-times with TBS-T, and incubated at 37° C. for 1 h with a rabbit anti-mouse IgG-HRP conjugate (Jackson; dilution 1:10,000 in TBS-T). Subsequent to five washes with TBS-T, 150 μl substrate (125 μg/ml 3,3′,5′-Tetramethyl-benzidine; in 0.1 M citrate buffer pH 4.5 with 0.05% (v/v) H2O2) were added, and after incubation at RT for 10-15 min the reaction was stopped by addition of […] 2 M HCl. The intensity of the dye reaction was measured at 450 nm in an ELISA reader (EL800; Bio-Tec Instruments Inc.). […]"}, "[5]": {"target": "T5, DMBT1pbs1 (Homo sapiens, UniProt Q9UGM3)", "T5 construct": "purchased Eurogentec, Belgium", "assay_type": "binding", "parameters": "key: +++: no difference in aggregation compared to reference; ++: moderate inhibition of aggregation over the entire time course or maximal aggregation delayed by 1-5-min compared to reference; +: strong inhibition of aggregation over the entire time course or maximal aggregation delayed by 5-10 min compared to reference; −: complete inhibition of aggregation after 10 min", "conditions": "pH co", "protocol": "Streptococcus mutans (Ingbritt), Streptococcus gordonii (HG 222 and DSM20568), Escherichia coli (F7 and OM36-1), and Helicobacter pylori (ATCC 43504) were gown and processed as described earlier. Salmonella typhimurium (strain SF1399: wild type; strain SF1195: Rc chemotype; strain SF1567: Rd1 chemotype; strain SF1398: Re chemotype) were kindly provided by Dr. Ben Appelmelk from the Free University of Amsterdam, The Netherlands, and were grown and processed as previously described for E. coli. The bacteria were diluted in the buffers depicted previously to a final OD700 of 0.5 or 1.0 corresponding to about 0.5 and 1.0×10^9 cells/ml respectively.\nFor quantitative measurements of bacterial aggregation, we added 200 μl peptide stock solution (1 mg/ml in 10% DMSO) diluted with 300 μl TBS containing 0.1% v/v Tween 20 and 1 mM CaCl2 (TBS-TC) to 500 μl of the respective bacterial suspensions to obtain final peptide concentrations of […]. As controls, we used bacterial suspensions, to which 200 μl 10% (v/v %) DMSO in H2O and 300 μl TBS-TC were added. Bacterial aggregation was monitored by measuring the optical density at 700 nm in intervals of 1 min for 1 h in a spectrophotometer (UVICON 930, Kontron Instruments). For the semi-quantitative high-throughput competition assays, we first determined the allowed pH range for DMBT1pbs1-mediated aggregation of S. gordonii and E. coli by using TBS-TC adjusted with either HCl or NaOH. […] For monitoring competitive effects, we preincubated 20 μl of the DMBT1pbs1 stock solution (20 μg) with 20 μl of the respective substance solutions in 48-well microtiter plates at room temperature (RT) for 2 min. As reference served 20 μl 10% (v/v) DMSO solution in H2O mixed with 20 μl of the solvents of the respective substances. Afterwards, 100 μl of S. gordonii or E. coli (resuspended in TBS-TC or TBS-T, respectively, for the calcium-free assays) solution was added simultaneously to each well using a multichannel pipette. Bacterial aggregation was compared to the reference by visual inspection over a time course of 10 min. The scoring system was: (+++) no difference in aggregation compared to reference. (++) moderate inhibition of aggregation over the entire time course or maximal aggregation delayed by 1-5-min compared to reference; (+) strong inhibition of aggregation over the entire time course or maximal aggregation delayed by 5-10 min compared to reference; (−) complete inhibition of aggregation after 10 min. Each experiment was at least done in triplicate.\nSucrose, maltose, dextrose, and the various salts tested were standard reagents obtained from Merck or Sigma. […] The following substances were obtained from Sigma with catalogue numbers in brackets: heparansulfate (H-7640), chondroitinsulfate B (C-3788), azoxymethane (A-9517), N-nitrosodiethlylamine (N-0258), streptococcus sanguis LTA (L-3765), Staphylococcus aureus LTA (L-2515), Escherichia coli LPS (L-3012), Klebsiella pneumoniae LPS (L-1770), Salmonella typhimurium LPS (L-6511), Salmonella minnesota LPS (chemotype Rd1; L-9391), L-α-phosphatidylcholine (P-279), CUROSURF™ with 80 mg/ml phospholipids from pig surfactant (54 mg/ml phosphatidylcholine and 30-5 mg/ml D-palmitoylphosphatidylcholine; overall: 99% polar phospholipids and 1% proteins) was obtained from Dey (Napa; Italy), and sIgA was purchased from Sigma. The dNTPs and the dNTP-Mix were from Roche Diagnostics. The DNA used in all experiments was the 4.7-kb plasmid pEGFP-N1 from Clontech."}, "[6]": {"target": "T6, rDMBT1 binding to HIV-gp120 (Homo sapiens, UniProt Q9UGM3, G1295S/L1336F/T649M)", "T6 construct": "made in house; host or cells: rDMBT1 from T-REx-CHO", "test": "Effects of DSS and dextran on rDMBT1 binding to HIV-gp120", "conditions": "100 μg/ml DSS or dextran; rDMBT1 2 μg/ml; gp120 1 μg/ml", "text": "Values are means of five independent experiments."}},
  "note": "Where two headings read alike, the source gives them in different places.",
  "data": [
    {"substance": "lipoteichoic acid [LTA]", "values": [
      {"measurement": "binding to DMBT1", "setting": "[1]", "result": "showed binding to DMBT1"}
    ]},
    {"substance": "Degraded lambda-carrageenan", "values": [
      {"measurement": "Inhibitory effects on bacterial aggregation mediated by DMBT1-SRCRP2", "setting": "[2]", "result": "Inhibitory effects"},
      {"measurement": "Inhibitory effects on rDMBT1-mediated Streptococcus gordonii aggregation", "setting": "[3]", "result": "Inhibitory effects"},
      {"measurement": "direct interaction with human DMBT1 (competition and binding studies in vitro)", "setting": "[4]", "result": "directly interacted"},
      {"measurement": "Aggregation of E. coli", "setting": "[5]; substance 0.05 mg/ml", "result": "+++"},
      {"measurement": "Aggregation of S. gordonii", "setting": "[5]; substance 0.05 mg/ml", "result": "++"},
      {"measurement": "Aggregation of S. gordonii", "setting": "[5]; substance 0.1 mg/ml", "result": "+"}
    ]},
    {"substance": "lipopolysaccharide [LPS]", "values": [
      {"measurement": "binding to DMBT1", "setting": "[1]", "result": "showed binding to DMBT1"}
    ]},
    {"substance": "Dextran sulfate sodium [Dextran sulfate sodium (DSS)]", "values": [
      {"measurement": "Inhibitory effects on bacterial aggregation mediated by DMBT1-SRCRP2", "setting": "[2]", "result": "Inhibitory effects"},
      {"measurement": "Inhibitory effects on rDMBT1-mediated Streptococcus gordonii aggregation", "setting": "[3]", "result": "Inhibitory effects"},
      {"measurement": "inhibition of rDMBT1 binding to immobilized HIV-gp120", "setting": "[6]", "result": "exerted an inhibitory effect"},
      {"measurement": "direct interaction with human DMBT1 (competition and binding studies in vitro)", "setting": "[4]", "result": "directly interacted"},
      {"measurement": "Aggregation of E. coli", "setting": "[5]; substance 10-50 mg/ml", "result": "−"},
      {"measurement": "Aggregation of S. gordonii", "setting": "[5]; substance 10-50 mg/ml", "result": "−"}
    ]}
  ]
}
